Literature values as cited in PMC9436819 (JACC: Basic to Translational Science, 2022).

Key:
[1] = test system: patients with obstructive HCM; set-up: method as in PMID 32871100; conditions: cited from earlier work
[2] = set-up: method as in PMID 30044681, PMID 31035291; conditions: cited from earlier work

CC(C)n1c(=O)cc(N[C@@H](C)c2ccccc2)[nH]c1=O [Mavacamten]
LV outflow tract pressure gradients [1]: reduced
Improving exercise capacity and health status ([1]; vs placebo): superior to placebo
Time required to reach a steady state [2]: 6 weeks
